Results from EP4722207A1, “OXOISOINDOLINYL-SUBSTITUTED TETRAHYDROPYRIMIDINEDIONE DERIVATIVE AND USE THEREOF” (Gluetacs Therapeutics (Shanghai) Co., Ltd., priority 2023, dated 2024).

What was measured:
MM.1S = test: Cell viability assay (CellTiter-Meiluncell Luminescent), tumor cell proliferation, MM.1S; conditions: Homo sapiens, MM1.S, 96 h, read-out: inhibitory activity (IC50, nM) against tumor cells proliferation, MM.1S
CK1α = target: T1, CK1α (Homo sapiens, UniProt P48729+Q96SW2); test: Western-blot assay, substrate protein degradation in hPBMCs: CK1α; assay type: cell-based; conditions: compounds at 50 nM and 500 nM, 24 hours
T1 construct: effects of the compounds of the present disclosure on the expression of target proteins in cells; endogenous in cells; host or cells: human PBMCs (hPBMCs)

MGC803 = test: Cell viability assay (CellTiter-Meiluncell Luminescent), tumor cell proliferation, MGC803; conditions: Homo sapiens, MGC-803, 96 h, read-out: inhibitory activity (IC50, nM) against tumor cells proliferation, MGC803
Method: (§1) On the following day, the test compounds of the present disclosure were subjected to serial dilution. […] Subsequently, 0.5 µL of the test compound dilution was transferred into the 96-well plate containing the cells, with each well containing 100 µL of cell culture medium. […] Into the 96-well plate, the diluted test compounds and corresponding detection reagents were added, resulting in final test compound concentrations of 500 nM and 10 nM, respectively.
(§2) After the cells were treated with the compounds of the present disclosure for a specified period, the cell viability assay reagent was added to the culture medium according to the kit's instructions to determine cell viability. […] All controls were treated using the same procedure as the compounds of the present disclosure. The growth inhibition curves for the compounds of the present disclosure were plotted using Prism GraphPad software, and the IC50 values were calculated therefrom.

WEE1 = target: T2, WEE1 (Homo sapiens, UniProt P30291+Q96SW2); test: Western-blot assay, substrate protein degradation in hPBMCs: WEE1; assay type: cell-based; conditions: compounds at 50 nM and 500 nM, 24 hours
T2 construct: effects of the compounds of the present disclosure on the expression of target proteins in cells; endogenous in cells; host or cells: human PBMCs (hPBMCs)

GSPT1 = target: T3, GSPT1 (Homo sapiens, UniProt P15170+Q96SW2); test: Western-blot assay, substrate protein degradation in hPBMCs: GSPT1; assay type: cell-based; conditions: compounds at 50 nM and 500 nM, 24 hours
T3 construct: effects of the compounds of the present disclosure on the expression of target proteins in cells; endogenous in cells; host or cells: human PBMCs (hPBMCs)

IKZF3 = target: T4, IKZF3 (Homo sapiens, UniProt Q96SW2+Q9UKT9); test: Western-blot assay, substrate protein degradation in hPBMCs: IKZF3; assay type: cell-based; conditions: compounds at 50 nM and 500 nM, 24 hours
T4 construct: effects of the compounds of the present disclosure on the expression of target proteins in cells; endogenous in cells; host or cells: human PBMCs (hPBMCs)

Jurkat = test: Cell viability assay (CellTiter-Meiluncell Luminescent), tumor cell proliferation, Jurkat; conditions: Homo sapiens, 96 h, read-out: inhibitory activity (IC50, nM) against tumor cells proliferation, Jurkat
Method: as §1, §2

IKZF1 = target: T5, IKZF1 (Homo sapiens, UniProt Q13422+Q96SW2); test: Western-blot assay, substrate protein degradation in hPBMCs: IKZF1; assay type: cell-based; conditions: compounds at 50 nM and 500 nM, 24 hours
T5 construct: effects of the compounds of the present disclosure on the expression of target proteins in cells; endogenous in cells; host or cells: human PBMCs (hPBMCs)

IKZF2 = target: T6, IKZF2 (Homo sapiens, UniProt Q96SW2+Q9UKS7); test: Western-blot assay, substrate protein degradation in hPBMCs: IKZF2; assay type: cell-based; conditions: compounds at 50 nM and 500 nM, 24 hours
T6 construct: effects of the compounds of the present disclosure on the expression of target proteins in cells; endogenous in cells; host or cells: human PBMCs (hPBMCs)
T6 sequence (Q9UKS7 whole entry): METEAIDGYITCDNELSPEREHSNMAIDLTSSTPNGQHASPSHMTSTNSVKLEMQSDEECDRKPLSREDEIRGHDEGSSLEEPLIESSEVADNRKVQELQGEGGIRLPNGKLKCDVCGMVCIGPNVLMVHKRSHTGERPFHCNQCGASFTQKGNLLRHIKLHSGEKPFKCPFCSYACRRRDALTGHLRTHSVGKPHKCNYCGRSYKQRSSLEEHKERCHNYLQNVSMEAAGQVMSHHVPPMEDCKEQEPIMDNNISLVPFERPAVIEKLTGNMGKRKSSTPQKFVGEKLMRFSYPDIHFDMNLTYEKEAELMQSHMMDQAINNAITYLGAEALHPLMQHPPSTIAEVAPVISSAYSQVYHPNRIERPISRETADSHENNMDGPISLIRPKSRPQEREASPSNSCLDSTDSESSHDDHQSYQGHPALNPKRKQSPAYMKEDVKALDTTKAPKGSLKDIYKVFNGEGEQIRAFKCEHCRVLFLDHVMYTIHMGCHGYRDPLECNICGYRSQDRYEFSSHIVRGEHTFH
T6 sequence (Q96SW2 whole entry): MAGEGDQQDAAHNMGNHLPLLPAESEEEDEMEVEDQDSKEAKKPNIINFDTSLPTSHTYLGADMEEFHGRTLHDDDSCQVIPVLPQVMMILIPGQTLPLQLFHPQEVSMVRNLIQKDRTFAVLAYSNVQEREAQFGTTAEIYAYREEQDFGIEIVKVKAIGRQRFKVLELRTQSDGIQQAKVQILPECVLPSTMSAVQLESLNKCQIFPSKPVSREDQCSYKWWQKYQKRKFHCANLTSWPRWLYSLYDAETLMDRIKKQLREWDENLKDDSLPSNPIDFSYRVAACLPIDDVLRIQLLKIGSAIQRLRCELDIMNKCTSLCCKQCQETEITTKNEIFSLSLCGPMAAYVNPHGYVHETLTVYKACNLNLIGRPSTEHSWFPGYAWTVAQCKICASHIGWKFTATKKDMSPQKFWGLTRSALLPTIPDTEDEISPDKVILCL
T6 sequence (Q16531 whole entry partner): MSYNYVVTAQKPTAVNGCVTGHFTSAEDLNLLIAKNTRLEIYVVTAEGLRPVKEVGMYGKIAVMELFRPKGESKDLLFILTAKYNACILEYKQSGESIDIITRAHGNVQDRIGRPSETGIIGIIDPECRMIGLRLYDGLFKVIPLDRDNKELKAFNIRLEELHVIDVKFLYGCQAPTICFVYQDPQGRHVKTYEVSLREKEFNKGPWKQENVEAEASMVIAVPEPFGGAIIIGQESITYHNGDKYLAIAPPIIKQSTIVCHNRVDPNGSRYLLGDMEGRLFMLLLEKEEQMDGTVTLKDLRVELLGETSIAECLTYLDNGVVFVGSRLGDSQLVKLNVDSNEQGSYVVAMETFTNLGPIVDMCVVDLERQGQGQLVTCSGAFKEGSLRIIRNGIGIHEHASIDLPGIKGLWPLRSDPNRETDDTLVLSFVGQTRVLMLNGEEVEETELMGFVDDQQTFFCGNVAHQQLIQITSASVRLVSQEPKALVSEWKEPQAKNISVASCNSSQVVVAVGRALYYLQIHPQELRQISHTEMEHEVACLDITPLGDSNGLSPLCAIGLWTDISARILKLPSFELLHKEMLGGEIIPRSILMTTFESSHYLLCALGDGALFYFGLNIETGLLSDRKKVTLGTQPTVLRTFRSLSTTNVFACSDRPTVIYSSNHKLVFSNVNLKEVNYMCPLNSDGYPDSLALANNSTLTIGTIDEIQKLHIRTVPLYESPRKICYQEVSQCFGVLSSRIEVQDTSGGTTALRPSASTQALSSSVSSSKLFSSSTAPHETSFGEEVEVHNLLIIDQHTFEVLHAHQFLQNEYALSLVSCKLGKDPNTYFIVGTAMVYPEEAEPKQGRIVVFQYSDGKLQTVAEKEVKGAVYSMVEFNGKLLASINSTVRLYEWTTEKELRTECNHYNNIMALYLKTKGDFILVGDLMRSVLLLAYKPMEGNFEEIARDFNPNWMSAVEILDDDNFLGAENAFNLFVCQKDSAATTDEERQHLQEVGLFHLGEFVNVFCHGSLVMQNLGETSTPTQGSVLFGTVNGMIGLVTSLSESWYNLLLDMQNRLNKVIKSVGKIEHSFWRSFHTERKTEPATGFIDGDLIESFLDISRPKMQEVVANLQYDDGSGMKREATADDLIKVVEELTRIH

T4 sequence (Q9UKT9 whole entry): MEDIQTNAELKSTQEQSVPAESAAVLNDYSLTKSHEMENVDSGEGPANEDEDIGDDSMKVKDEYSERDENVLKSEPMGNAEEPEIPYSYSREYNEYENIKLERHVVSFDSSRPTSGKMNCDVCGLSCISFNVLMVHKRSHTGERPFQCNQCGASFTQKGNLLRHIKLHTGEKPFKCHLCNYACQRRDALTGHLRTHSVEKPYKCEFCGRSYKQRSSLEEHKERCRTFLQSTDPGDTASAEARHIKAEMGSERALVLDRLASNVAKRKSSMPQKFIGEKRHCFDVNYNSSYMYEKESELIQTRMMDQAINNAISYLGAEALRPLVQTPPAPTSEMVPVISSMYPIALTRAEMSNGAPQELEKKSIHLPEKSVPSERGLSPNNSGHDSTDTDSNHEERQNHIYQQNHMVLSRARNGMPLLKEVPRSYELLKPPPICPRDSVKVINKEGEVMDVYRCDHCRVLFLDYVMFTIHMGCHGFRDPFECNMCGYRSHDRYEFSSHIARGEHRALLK
T4 sequence (Q96SW2 whole entry): as the sequence (Q96SW2 whole entry) above
T4 sequence (Q16531 whole entry partner): as the sequence (Q16531 whole entry partner) above
T2 sequence (P30291 whole entry): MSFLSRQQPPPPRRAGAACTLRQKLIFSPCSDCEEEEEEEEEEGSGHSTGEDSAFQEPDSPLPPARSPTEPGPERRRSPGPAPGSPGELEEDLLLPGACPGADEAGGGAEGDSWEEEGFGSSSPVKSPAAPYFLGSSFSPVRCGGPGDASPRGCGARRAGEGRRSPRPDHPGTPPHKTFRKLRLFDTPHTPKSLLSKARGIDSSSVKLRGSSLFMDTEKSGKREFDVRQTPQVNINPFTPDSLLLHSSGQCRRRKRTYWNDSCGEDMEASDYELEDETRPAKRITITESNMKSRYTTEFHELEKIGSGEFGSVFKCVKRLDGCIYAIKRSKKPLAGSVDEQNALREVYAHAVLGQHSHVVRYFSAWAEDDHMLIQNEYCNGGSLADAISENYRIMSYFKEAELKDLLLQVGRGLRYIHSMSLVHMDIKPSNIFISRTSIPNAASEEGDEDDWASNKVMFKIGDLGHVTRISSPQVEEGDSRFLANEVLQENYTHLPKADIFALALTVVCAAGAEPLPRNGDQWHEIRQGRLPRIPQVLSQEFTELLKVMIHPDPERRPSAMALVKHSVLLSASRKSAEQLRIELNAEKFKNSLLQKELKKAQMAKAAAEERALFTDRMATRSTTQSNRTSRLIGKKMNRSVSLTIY
T2 sequence (Q96SW2 whole entry): as the sequence (Q96SW2 whole entry) above
T2 sequence (Q16531 whole entry partner): as the sequence (Q16531 whole entry partner) above
T5 sequence (Q13422 whole entry): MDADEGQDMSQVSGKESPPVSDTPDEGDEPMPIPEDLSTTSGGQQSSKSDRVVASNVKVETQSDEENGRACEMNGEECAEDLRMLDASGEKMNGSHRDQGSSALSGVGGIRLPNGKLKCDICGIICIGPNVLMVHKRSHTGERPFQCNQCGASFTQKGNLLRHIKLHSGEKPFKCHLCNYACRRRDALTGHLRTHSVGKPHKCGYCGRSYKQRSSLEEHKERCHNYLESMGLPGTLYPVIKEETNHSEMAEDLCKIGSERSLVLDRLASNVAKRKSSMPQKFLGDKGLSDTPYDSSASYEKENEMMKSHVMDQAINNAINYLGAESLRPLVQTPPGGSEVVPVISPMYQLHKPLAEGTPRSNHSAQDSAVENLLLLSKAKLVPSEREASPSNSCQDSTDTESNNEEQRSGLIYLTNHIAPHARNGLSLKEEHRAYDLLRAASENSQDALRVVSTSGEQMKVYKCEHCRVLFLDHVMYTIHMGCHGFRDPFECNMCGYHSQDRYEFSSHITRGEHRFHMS
T5 sequence (Q96SW2 whole entry): as the sequence (Q96SW2 whole entry) above
T5 sequence (Q16531 whole entry partner): as the sequence (Q16531 whole entry partner) above
T3 sequence (P15170 whole entry): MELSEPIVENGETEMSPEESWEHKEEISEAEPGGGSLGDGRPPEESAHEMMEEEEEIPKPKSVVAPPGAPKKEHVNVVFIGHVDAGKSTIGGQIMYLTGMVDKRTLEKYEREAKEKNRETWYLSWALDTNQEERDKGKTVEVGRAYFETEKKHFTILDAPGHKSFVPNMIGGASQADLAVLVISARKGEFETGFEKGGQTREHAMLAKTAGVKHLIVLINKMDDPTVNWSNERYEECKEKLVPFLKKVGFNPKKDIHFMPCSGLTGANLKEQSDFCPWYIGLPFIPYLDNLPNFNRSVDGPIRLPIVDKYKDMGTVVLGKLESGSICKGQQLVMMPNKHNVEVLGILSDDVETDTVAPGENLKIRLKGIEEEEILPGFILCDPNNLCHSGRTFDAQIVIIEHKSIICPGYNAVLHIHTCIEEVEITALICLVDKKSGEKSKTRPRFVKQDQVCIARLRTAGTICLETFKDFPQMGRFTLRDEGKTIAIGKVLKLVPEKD
T3 sequence (Q96SW2 whole entry): as the sequence (Q96SW2 whole entry) above
T3 sequence (Q16531 whole entry partner): as the sequence (Q16531 whole entry partner) above

SMILES	IC50 (MM.1S) [nM]	CK1α substrate protein remaining % (CK1α)	IC50 (MGC803) [nM]	WEE1 substrate protein remaining % (WEE1)	GSPT1 substrate protein remaining % (GSPT1)	IKZF3 substrate protein remaining % (IKZF3)	IC50 (Jurkat) [nM]	IKZF1 substrate protein remaining % (IKZF1)	IKZF2 substrate protein remaining % (IKZF2)
Cc1cscc1C1=CCN(Cc2ccc3c(c2)CN(N2CCC(=O)NC2=O)C3=O)CC1 [GT-04872, 1-(5-((4-(4-methylthiophen-3-yl)-3,6-dihydropyridin-1(2H)-yl)methyl)-1-oxoisoindolin-2-yl)dihydropyrimidine-2,4(1H,3H)-dione]	10 to 50	B ("B" is defined as 80%< substrate protein remaining %≤ 100%)	100 to 300	A ("A" is defined as 0% ≤ substrate protein remaining % ≤ 80%)	A ("A" is defined as 0% ≤ substrate protein remaining % ≤ 80%)	B ("B" is defined as 80%< substrate protein remaining %≤ 100%)	100 to 300	A ("A" is defined as 0% ≤ substrate protein remaining % ≤ 80%)	B ("B" is defined as 80%< substrate protein remaining %≤ 100%)
Cc1ccsc1C1=CCN(Cc2ccc3c(c2)CN(N2CCC(=O)NC2=O)C3=O)CC1 [GT-04870, 1-(5-((4-(3-methylthiophen-2-yl)-3,6-dihydropyridin-1(2H)-yl)methyl)-1-oxoisoindolin-2-yl)dihydropyrimidine-2,4(1H,3H)-dione]	50 to 100	B ("B" is defined as 80%< substrate protein remaining %≤ 100%)	100 to 300	A ("A" is defined as 0% ≤ substrate protein remaining % ≤ 80%)	A ("A" is defined as 0% ≤ substrate protein remaining % ≤ 80%)	A ("A" is defined as 0% ≤ substrate protein remaining % ≤ 80%)	100 to 300	A ("A" is defined as 0% ≤ substrate protein remaining % ≤ 80%)	A ("A" is defined as 0% ≤ substrate protein remaining % ≤ 80%)
O=C1CCN(N2Cc3cc(CN4CC=C(c5ccsc5)CC4)ccc3C2=O)C(=O)N1 [GT-04871, 1-(1-oxo-5-((4-(thiophen-3-yl)-3,6-dihydropyridin-1(2H)-yl)methyl)isoindolin-2-yl)dihydropyrimidine-2,4(1H,3H)-dione]	100 to 300	B ("B" is defined as 80%< substrate protein remaining %≤ 100%)	300 to 500	A ("A" is defined as 0% ≤ substrate protein remaining % ≤ 80%)	A ("A" is defined as 0% ≤ substrate protein remaining % ≤ 80%)	B ("B" is defined as 80%< substrate protein remaining %≤ 100%)	300 to 500	A ("A" is defined as 0% ≤ substrate protein remaining % ≤ 80%)	B ("B" is defined as 80%< substrate protein remaining %≤ 100%)
Cc1cc(C2=CCN(Cc3ccc4c(c3)CN(N3CCC(=O)NC3=O)C4=O)CC2)cs1 [GT-04873, 1-(5-((4-(5-methylthiophen-3-yl)-3,6-dihydropyridin-1(2H)-yl)methyl)-1-oxoisoindolin-2-yl)dihydropyrimidine-2,4(1H,3H)-dione]	50 to 100	B ("B" is defined as 80%< substrate protein remaining %≤ 100%)	100 to 300	A ("A" is defined as 0% ≤ substrate protein remaining % ≤ 80%)	A ("A" is defined as 0% ≤ substrate protein remaining % ≤ 80%)	A ("A" is defined as 0% ≤ substrate protein remaining % ≤ 80%)	100 to 300	A ("A" is defined as 0% ≤ substrate protein remaining % ≤ 80%)	B ("B" is defined as 80%< substrate protein remaining %≤ 100%)
O=C1CCN(N2Cc3cc(CN4CCN(c5cccc6sccc56)CC4)ccc3C2=O)C(=O)N1 [GT-04866, 1-(5-((4-(benzo[b]thiophen-4-yl)piperazin-1-yl)methyl)-1-oxoisoindolin-2-yl)dihydropyrimidine-2,4(1H,3H)-dione]	100 to 300	B ("B" is defined as 80%< substrate protein remaining %≤ 100%)	300 to 500	A ("A" is defined as 0% ≤ substrate protein remaining % ≤ 80%)	A ("A" is defined as 0% ≤ substrate protein remaining % ≤ 80%)	B ("B" is defined as 80%< substrate protein remaining %≤ 100%)	300 to 500	A ("A" is defined as 0% ≤ substrate protein remaining % ≤ 80%)	B ("B" is defined as 80%< substrate protein remaining %≤ 100%)
Cc1ccc(C2=CCN(Cc3ccc4c(c3)CN(N3CCC(=O)NC3=O)C4=O)CC2)s1 [GT-04869, 1-(5-((4-(5-methylthiophen-2-yl)-3,6-dihydropyridin-1(2H)-yl)methyl)-1-oxoisoindolin-2-yl)dihydropyrimidine-2,4(1H,3H)-dione]	50 to 100	B ("B" is defined as 80%< substrate protein remaining %≤ 100%)	300 to 500	A ("A" is defined as 0% ≤ substrate protein remaining % ≤ 80%)	A ("A" is defined as 0% ≤ substrate protein remaining % ≤ 80%)	A ("A" is defined as 0% ≤ substrate protein remaining % ≤ 80%)	300 to 500	A ("A" is defined as 0% ≤ substrate protein remaining % ≤ 80%)	A ("A" is defined as 0% ≤ substrate protein remaining % ≤ 80%)
O=C1CCN(N2Cc3cc(CN4CCC(N(c5ccccc5)c5ccccc5)CC4)ccc3C2=O)C(=O)N1 [GT-04939, 1-(5-((4-(diphenylamino)piperidin-1-yl)methyl)-1-oxoisoindolin-2-yl)dihydropyrimidine-2,4(1H,3H)-dione]	10 to 50	A ("A" is defined as 0% ≤ substrate protein remaining % ≤ 80%)	100 to 300	A ("A" is defined as 0% ≤ substrate protein remaining % ≤ 80%)	A ("A" is defined as 0% ≤ substrate protein remaining % ≤ 80%)	A ("A" is defined as 0% ≤ substrate protein remaining % ≤ 80%)	100 to 300	A ("A" is defined as 0% ≤ substrate protein remaining % ≤ 80%)	A ("A" is defined as 0% ≤ substrate protein remaining % ≤ 80%)
O=C1CCN(N2Cc3cc(CN4CC=C(c5cccs5)CC4)ccc3C2=O)C(=O)N1 [GT-04868, 1-(1-oxo-5-((4-(thiophen-2-yl)-3,6-dihydropyridin-1(2H)-yl)methyl)isoindolin-2-yl)dihydropyrimidine-2,4(1H,3H)-dione]	100 to 300	A ("A" is defined as 0% ≤ substrate protein remaining % ≤ 80%)	300 to 500	A ("A" is defined as 0% ≤ substrate protein remaining % ≤ 80%)	A ("A" is defined as 0% ≤ substrate protein remaining % ≤ 80%)	B ("B" is defined as 80%< substrate protein remaining %≤ 100%)	300 to 500	A ("A" is defined as 0% ≤ substrate protein remaining % ≤ 80%)	B ("B" is defined as 80%< substrate protein remaining %≤ 100%)
O=C1CCN(N2Cc3cc(CN4CCC(N(c5ccccc5)c5ccccn5)CC4)ccc3C2=O)C(=O)N1 [GT-04940, 1-(1-oxo-5-((4-(phenyl(pyridin-2-yl)amino)piperidin-1-yl)methyl)isoindolin-2-yl)dihydropyrimidine-2,4(1H,3H)-dione]	50 to 100	A ("A" is defined as 0% ≤ substrate protein remaining % ≤ 80%)	100 to 300	A ("A" is defined as 0% ≤ substrate protein remaining % ≤ 80%)	A ("A" is defined as 0% ≤ substrate protein remaining % ≤ 80%)	A ("A" is defined as 0% ≤ substrate protein remaining % ≤ 80%)	100 to 300	A ("A" is defined as 0% ≤ substrate protein remaining % ≤ 80%)	A ("A" is defined as 0% ≤ substrate protein remaining % ≤ 80%)
O=C1CCN(N2Cc3cc(CN4CCN(C(c5ccccc5)c5ccccn5)CC4)ccc3C2=O)C(=O)N1 (centres unmarked) [GT-04890, 1-(1-oxo-5-((4-(phenyl(pyridin-2-yl)methyl)piperazin-1-yl)methyl)isoindolin-2-yl)dihydropyrimidine-2,4(1H,3H)-dione]	100 to 300	B ("B" is defined as 80%< substrate protein remaining %≤ 100%)	500 to 1000	B ("B" is defined as 80%< substrate protein remaining %≤ 100%)	A ("A" is defined as 0% ≤ substrate protein remaining % ≤ 80%)	B ("B" is defined as 80%< substrate protein remaining %≤ 100%)		A ("A" is defined as 0% ≤ substrate protein remaining % ≤ 80%)	A ("A" is defined as 0% ≤ substrate protein remaining % ≤ 80%)
